How the values were obtained:
Assay in all cases: Kinobeads competition binding, HL60 cell lysate
Set-up in all cases: endogenous in cells; host or cells: HL60
Details in all cases: 10 μM free compound
TYK2 = TYK2 (Homo sapiens, UniProt P29597)
Protocol: (§1) To one aliquot of cell lysate 10 μM of the free compound (FIG. 3, CZC31326) was added and allowed to bind to proteins in the lysate. Then the affinity matrix with the immobilized compound (Example 1) was added to capture proteins that were not interacting with the previously added free compound. Beads were separated from the lysate and bead bound proteins were eluted in SDS sample buffer and subsequently separated by SDS-Polyacrylamide gel electrophoresis (FIG. 4). Suitable gel bands were cut out and subjected to in-gel proteolytic digestion with trypsin. The second lysate aliquot was processed identically, however no free compound was added (DMSO solvent control). Peptides originating from samples 1 and 2 were labeled with iTRAQ reagents (iTRAQ 114 and iTRAQ 117) and the combined samples were analyzed with a nano-flow liquid chromatography system coupled online to a tandem mass spectrometer (LC-MS/MS) experiment followed by iTRAQ reporter ion quantification in the MS/MS spectra (Ross et al., 2004. Mol. Cell. Proteomics 3(12):1154-1169). Further experimental protocols can be found in WO2006/134056 and a previous publication (Bantscheff et al., 2007. Nature Biotechnology 25, 1035-1044). Sepharose-beads with the immobilized compound (100 μl beads per pull-down experiment) were equilibrated in lysis buffer and incubated with a cell lysate sample containing 50 mg of protein on an end-over-end shaker (Roto Shake Genie, Scientific Industries Inc.) for 2 hours at 4° C. Beads were collected, transferred to Mobicol-columns (MoBiTech 10055) and washed with 10 ml lysis buffer containing 0.4% NP40 detergent, followed by 5 ml lysis buffer containing 0.2% detergent. To elute bound proteins, 60 μl 2×SDS sample buffer was added to the column. The column was incubated for 30 minutes at 50° C. and the eluate was transferred to a siliconized microfuge tube by centrifugation. Proteins were then alkylated with 108 mM iodoacetamid. Proteins were then separated by SDS-Polyacrylamide electrophoresis (SDS-PAGE). The peptide extracts of samples treated with 10 μM of free compound (CZC31326) and the solvent control (0.5% DMSO) were treated with different variants of the isobaric tagging reagent (iTRAQ Reagents Multiplex Kit, part number 4352135, Applied Biosystems, Foster City, Calif., USA). The iTRAQ reagents are a set of multiplexed, amine-specific, stable isotope reagents that can label peptides on amino groups in up to four different biological samples enabling simultaneous identification and quantitation of peptides. The iTRAQ reagents were used according to instructions provided by the manufacturer. The samples were resuspended in 10 μl 50 mM TEAB solution, pH 8.5 and 10 μl ethanol were added. The iTRAQ reagent was dissolved in 120 μl ethanol and 10 μl of reagent solution were added to the sample. The labeling reaction was performed at room temperature for one hour on a horizontal shaker and stopped by adding 5 μl of 100 mM TEAB and 100 mM glycine in water. The two labeled sampled were then combined, dried in a vacuum centrifuge and resuspended in 10 μl of 0.1% formic acid in water. Relative protein quantitation was performed using peak areas of iTRAQ reporter ion signals essentially as described in an earlier publication (Bantscheff et al., 2007. Nature Biotechnology 25, 1035-1044).

PIP5K2C = target: T1, PIP5K2C (Homo sapiens, UniProt Q8TBX8)
T1 sequence (Q8TBX8 1-421): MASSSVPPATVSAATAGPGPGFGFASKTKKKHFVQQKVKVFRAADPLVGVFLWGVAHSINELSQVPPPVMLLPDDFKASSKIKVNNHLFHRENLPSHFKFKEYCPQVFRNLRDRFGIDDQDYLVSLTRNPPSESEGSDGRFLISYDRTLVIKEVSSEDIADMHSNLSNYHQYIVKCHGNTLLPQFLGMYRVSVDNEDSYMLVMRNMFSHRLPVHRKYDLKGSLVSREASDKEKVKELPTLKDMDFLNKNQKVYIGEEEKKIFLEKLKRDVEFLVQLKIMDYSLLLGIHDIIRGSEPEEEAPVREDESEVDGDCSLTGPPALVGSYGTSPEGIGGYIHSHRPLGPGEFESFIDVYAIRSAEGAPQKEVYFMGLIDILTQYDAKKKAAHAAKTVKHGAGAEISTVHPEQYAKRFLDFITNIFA
Protocol: as §1

TAO3 = target: T2, TAO3 (Homo sapiens, UniProt Q9H2K8)
T2 sequence (Q9H2K8 1-898): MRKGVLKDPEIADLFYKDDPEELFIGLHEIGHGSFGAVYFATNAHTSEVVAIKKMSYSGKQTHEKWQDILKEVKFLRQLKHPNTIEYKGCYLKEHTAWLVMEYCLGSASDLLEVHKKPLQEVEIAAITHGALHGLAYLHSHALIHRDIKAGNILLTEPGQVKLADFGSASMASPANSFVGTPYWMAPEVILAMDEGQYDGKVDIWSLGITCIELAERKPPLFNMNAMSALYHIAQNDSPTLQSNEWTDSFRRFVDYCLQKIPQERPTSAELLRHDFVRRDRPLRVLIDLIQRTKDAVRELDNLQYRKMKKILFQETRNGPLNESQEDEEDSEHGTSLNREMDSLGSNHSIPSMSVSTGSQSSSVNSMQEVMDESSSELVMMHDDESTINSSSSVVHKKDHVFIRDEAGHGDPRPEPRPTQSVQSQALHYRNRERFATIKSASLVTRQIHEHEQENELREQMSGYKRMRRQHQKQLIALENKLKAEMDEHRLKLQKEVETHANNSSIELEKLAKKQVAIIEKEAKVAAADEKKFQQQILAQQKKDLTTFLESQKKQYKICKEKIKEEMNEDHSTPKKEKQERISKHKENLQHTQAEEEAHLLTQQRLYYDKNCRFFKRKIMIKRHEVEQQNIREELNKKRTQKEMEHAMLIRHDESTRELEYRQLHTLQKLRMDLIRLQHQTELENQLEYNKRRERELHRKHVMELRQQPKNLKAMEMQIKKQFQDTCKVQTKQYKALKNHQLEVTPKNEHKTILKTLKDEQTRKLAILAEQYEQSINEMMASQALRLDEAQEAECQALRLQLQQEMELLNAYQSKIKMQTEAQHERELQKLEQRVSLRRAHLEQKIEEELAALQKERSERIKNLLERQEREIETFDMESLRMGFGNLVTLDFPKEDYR
Protocol: as §1

GSK3B = GSK3B (Homo sapiens, UniProt P49841)
Protocol: as §1

HIPK2 = HIPK2 (Homo sapiens, UniProt Q9H2X6)
Protocol: as §1

Chain of TYK2 (P29597 whole entry): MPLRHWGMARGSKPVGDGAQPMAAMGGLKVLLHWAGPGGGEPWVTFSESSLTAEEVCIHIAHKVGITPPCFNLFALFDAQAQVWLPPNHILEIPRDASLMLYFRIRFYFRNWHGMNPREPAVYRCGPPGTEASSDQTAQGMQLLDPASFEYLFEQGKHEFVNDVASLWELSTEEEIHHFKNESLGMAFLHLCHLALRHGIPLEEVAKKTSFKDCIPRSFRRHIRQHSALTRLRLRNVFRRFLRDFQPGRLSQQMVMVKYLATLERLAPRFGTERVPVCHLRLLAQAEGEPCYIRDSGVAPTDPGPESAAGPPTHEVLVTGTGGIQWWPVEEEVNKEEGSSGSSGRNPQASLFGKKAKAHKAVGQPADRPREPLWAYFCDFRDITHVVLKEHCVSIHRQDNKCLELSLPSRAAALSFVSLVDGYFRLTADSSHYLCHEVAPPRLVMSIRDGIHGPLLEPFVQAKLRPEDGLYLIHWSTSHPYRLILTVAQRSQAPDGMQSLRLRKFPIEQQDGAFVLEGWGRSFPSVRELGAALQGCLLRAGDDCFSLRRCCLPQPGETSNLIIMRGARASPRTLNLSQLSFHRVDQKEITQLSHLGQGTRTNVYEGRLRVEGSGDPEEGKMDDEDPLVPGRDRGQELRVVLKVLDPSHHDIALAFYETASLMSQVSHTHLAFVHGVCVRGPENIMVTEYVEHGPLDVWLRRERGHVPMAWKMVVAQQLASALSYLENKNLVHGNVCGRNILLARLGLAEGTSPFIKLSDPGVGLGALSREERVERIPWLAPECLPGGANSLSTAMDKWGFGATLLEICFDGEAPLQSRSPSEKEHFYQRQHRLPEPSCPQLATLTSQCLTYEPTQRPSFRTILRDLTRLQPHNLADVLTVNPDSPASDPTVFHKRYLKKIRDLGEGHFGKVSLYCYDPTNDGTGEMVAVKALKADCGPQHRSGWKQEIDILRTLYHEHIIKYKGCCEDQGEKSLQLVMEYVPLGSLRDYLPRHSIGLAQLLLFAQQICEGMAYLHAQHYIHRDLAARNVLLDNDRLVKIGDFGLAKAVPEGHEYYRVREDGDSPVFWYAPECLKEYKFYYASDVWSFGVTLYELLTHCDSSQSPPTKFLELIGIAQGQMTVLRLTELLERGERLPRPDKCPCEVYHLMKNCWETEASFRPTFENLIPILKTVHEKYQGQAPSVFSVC
Chain of HIPK2 (Q9H2X6 whole entry): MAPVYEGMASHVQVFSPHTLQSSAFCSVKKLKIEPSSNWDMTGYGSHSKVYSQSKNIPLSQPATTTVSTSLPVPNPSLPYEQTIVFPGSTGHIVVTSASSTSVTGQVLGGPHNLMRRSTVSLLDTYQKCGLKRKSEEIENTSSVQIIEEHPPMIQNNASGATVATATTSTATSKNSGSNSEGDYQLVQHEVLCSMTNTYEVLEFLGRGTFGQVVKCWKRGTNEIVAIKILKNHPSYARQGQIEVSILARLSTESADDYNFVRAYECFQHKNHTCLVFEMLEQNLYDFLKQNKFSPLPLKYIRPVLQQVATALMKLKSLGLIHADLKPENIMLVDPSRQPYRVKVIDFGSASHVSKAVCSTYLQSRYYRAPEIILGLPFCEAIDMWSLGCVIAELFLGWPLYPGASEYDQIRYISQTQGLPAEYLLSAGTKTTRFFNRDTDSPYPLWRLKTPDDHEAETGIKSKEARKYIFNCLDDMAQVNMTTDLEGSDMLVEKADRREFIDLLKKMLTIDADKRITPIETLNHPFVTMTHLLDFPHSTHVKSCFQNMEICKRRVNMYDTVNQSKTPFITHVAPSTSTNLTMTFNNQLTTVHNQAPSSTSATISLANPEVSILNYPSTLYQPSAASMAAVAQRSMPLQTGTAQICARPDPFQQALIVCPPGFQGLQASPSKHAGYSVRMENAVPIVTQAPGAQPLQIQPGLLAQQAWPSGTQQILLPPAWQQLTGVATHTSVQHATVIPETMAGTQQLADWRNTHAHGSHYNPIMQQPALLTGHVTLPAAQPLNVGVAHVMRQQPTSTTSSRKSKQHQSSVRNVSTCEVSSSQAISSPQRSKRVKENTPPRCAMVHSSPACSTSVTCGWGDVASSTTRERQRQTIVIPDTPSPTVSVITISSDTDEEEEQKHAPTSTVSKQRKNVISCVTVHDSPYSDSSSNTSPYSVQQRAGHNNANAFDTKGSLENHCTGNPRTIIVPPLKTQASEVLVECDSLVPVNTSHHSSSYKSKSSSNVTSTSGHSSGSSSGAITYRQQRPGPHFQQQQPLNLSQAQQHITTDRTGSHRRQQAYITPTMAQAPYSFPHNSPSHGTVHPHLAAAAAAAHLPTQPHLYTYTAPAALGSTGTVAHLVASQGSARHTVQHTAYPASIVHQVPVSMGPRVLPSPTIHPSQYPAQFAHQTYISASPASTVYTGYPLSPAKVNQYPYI
Chain of GSK3B (P49841 whole entry): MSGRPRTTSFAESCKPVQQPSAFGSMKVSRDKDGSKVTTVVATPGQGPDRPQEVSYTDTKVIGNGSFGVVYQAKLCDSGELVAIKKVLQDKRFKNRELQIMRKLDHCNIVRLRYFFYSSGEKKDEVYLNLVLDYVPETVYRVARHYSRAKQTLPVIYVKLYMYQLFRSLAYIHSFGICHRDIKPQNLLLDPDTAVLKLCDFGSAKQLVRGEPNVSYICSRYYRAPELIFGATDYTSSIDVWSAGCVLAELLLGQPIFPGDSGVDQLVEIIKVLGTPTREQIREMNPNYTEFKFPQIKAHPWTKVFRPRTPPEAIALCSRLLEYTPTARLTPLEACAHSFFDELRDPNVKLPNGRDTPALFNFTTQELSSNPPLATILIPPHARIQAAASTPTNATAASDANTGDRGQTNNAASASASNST

Competition % (TYK2): 97.1% | inhibition at 10 µM (PIP5K2C): 98.3% | inhibition at 10 µM (TAO3): 98% | inhibition at 10 µM (GSK3B): 96.1% | inhibition at 10 µM (HIPK2): 94.4%
SMILES: CS(=O)(=O)Nc1ccccc1Nc1nc(Nc2cccc(OCCN)c2)ncc1Cl [CZC31326, N-(2-(2-(3-(2-aminoethoxy)phenylamino)-5-chloropyrimidin-4-ylamino)phenyl)methanesulfonamide]

— US20120270237A9, “METHODS FOR THE IDENTIFICATION OF KINASE INTERACTING MOLECULES AND FOR THE PURIFICATION OF KINASE PROTEINS” (Cellzone AG, priority 2009, published 2012)
